ChEMBL document CHEMBL1667751, “Synthesis and antimicrobial activity of highly functionalised novel β-lactam grafted spiropyrrolidines and pyrrolizidines” (2011)

Key:
[1] = test system: Proteus vulgaris; experiment: Antibacterial activity against Proteus vulgaris at 100 ug/ml after 24 hrs agar diffusion method; type: functional; conditions: read-out: DIZ
[2] = test system: Staphylococcus aureus; experiment: Antibacterial activity against Staphylococcus aureus at 75 ug/ml after 24 hrs agar diffusion method; type: functional; conditions: read-out: DIZ
[3] = test system: Proteus vulgaris; experiment: Antibacterial activity against Proteus vulgaris at 25 ug/ml after 24 hrs agar diffusion method; type: functional; conditions: read-out: DIZ
[4] = test system: Salmonella typhi; experiment: Antibacterial activity against Salmonella typhi at 50 ug/ml after 24 hrs agar diffusion method; type: functional, Salmonella enterica subsp. enterica serovar Typhi; conditions: Salmonella enterica, read-out: DIZ
[5] = test system: Staphylococcus aureus; experiment: Antibacterial activity against Staphylococcus aureus at 50 ug/ml after 24 hrs agar diffusion method; type: functional; conditions: read-out: DIZ
[6] = test system: Staphylococcus aureus; experiment: Antibacterial activity against Staphylococcus aureus at 100 ug/ml after 24 hrs agar diffusion method; type: functional; conditions: read-out: DIZ
[7] = test system: Salmonella typhi; experiment: Antibacterial activity against Salmonella typhi at 25 ug/ml after 24 hrs agar diffusion method; type: functional, Salmonella enterica subsp. enterica serovar Typhi; conditions: Salmonella enterica, read-out: DIZ
[8] = test system: Proteus mirabilis; experiment: Antibacterial activity against Proteus mirabilis at 75 ug/ml after 24 hrs agar diffusion method; type: functional; conditions: read-out: DIZ
[9] = test system: Proteus vulgaris; experiment: Antibacterial activity against Proteus vulgaris at 50 ug/ml after 24 hrs agar diffusion method; type: functional; conditions: read-out: DIZ
[10] = test system: Proteus mirabilis; experiment: Antibacterial activity against Proteus mirabilis at 50 ug/ml after 24 hrs agar diffusion method; type: functional; conditions: read-out: DIZ
[11] = test system: Staphylococcus aureus; experiment: Antibacterial activity against Staphylococcus aureus at 25 ug/ml after 24 hrs agar diffusion method; type: functional; conditions: read-out: DIZ
[12] = test system: Proteus vulgaris; experiment: Antibacterial activity against Proteus vulgaris at 75 ug/ml after 24 hrs agar diffusion method; type: functional; conditions: read-out: DIZ
[13] = test system: Salmonella typhi; experiment: Antibacterial activity against Salmonella typhi at 75 ug/ml after 24 hrs agar diffusion method; type: functional, Salmonella enterica subsp. enterica serovar Typhi; conditions: Salmonella enterica, read-out: DIZ
[14] = test system: Proteus mirabilis; experiment: Antibacterial activity against Proteus mirabilis at 25 ug/ml after 24 hrs agar diffusion method; type: functional; conditions: read-out: DIZ
[15] = test system: Proteus mirabilis; experiment: Antibacterial activity against Proteus mirabilis at 100 ug/ml after 24 hrs agar diffusion method; type: functional; conditions: read-out: DIZ
[16] = test system: Salmonella typhi; experiment: Antibacterial activity against Salmonella typhi at 100 ug/ml after 24 hrs agar diffusion method; type: functional, Salmonella enterica subsp. enterica serovar Typhi; conditions: Salmonella enterica, read-out: DIZ

Row | SMILES | zone of inhibition at 100 µg/mL [1] [mm] | zone of inhibition at 75 µg/mL [2] [mm] | zone of inhibition at 25 µg/mL [3] [mm] | zone of inhibition at 50 µg/mL [4] [mm] | zone of inhibition at 50 µg/mL [5] [mm] | zone of inhibition at 100 µg/mL [6] [mm] | zone of inhibition at 25 µg/mL [7] [mm] | zone of inhibition at 75 µg/mL [8] [mm] | zone of inhibition at 50 µg/mL [9] [mm] | zone of inhibition at 50 µg/mL [10] [mm] | zone of inhibition at 25 µg/mL [11] [mm] | zone of inhibition at 75 µg/mL [12] [mm] | zone of inhibition at 75 µg/mL [13] [mm] | zone of inhibition at 25 µg/mL [14] [mm] | zone of inhibition at 100 µg/mL [15] [mm] | zone of inhibition at 100 µg/mL [16] [mm]
1 | CCOC(=O)[C@@H]1[C@@H]([C@H]2[C@@H](Oc3ccccc3)C(=O)N2c2ccc(OC)cc2)C2CCCN2[C@]12C(=O)Nc1ccccc12 (some centres not stated) | > 40 | 22 | 19 | 16 | 18 | 34 | 13 | 24 | 20 | 16 | 14 | 27 | 21 | 12 | 36 | 31
2 | CCOC(=O)[C@@H]1[C@@H]([C@H]2[C@@H](c3ccccc3)C(=O)N2c2ccc(OC)cc2)C2CCCN2[C@]12C(=O)Nc1ccccc12 (some centres not stated) | > 40 | 21 | 13 | 14 | 16 | 31 | 11 | 21 | 21 | 18 | 9 | 25 | 18 | 14 | 32 | 26
3 | CCOC(=O)[C@@H]1[C@@H]([C@H]2[C@@H](Oc3ccccc3)C(=O)N2c2ccc(OC)cc2)CN(C)[C@@]12C(=O)c1cccc3cccc2c13 | 20 | 15 | 9 | 11 | 9 | 19 | 9 | 15 | 11 | 11 |  | 15 | 14 | 9 | 20 | 16
4 | CCOC(=O)[C@@H]1[C@@H]([C@H]2[C@@H](c3ccccc3)C(=O)N2c2ccc(OC)cc2)CN(C)[C@@]12C(=O)c1cccc3cccc2c13 | 21 | 15 |  | 11 | 10 | 21 |  | 13 | 10 | 9 |  | 15 | 13 |  | 18 | 18
5 | CCOC(=O)[C@@H]1[C@@H]([C@H]2[C@@H](Oc3ccccc3)C(=O)N2c2ccc(OC)cc2)C2CCCN2[C@@]12C(=O)c1cccc3cccc2c13 (some centres not stated) | 20 | 14 | 9 |  | 11 | 18 |  | 16 | 11 | 13 |  | 16 |  | 10 | 20 | 
6 | CCOC(=O)[C@@H]1[C@@H]([C@H]2[C@@H](c3ccccc3)C(=O)N2c2ccc(OC)cc2)C2CCCN2[C@@]12C(=O)c1cccc3cccc2c13 (some centres not stated) | 20 | 19 |  |  | 14 | 21 |  | 14 | 12 | 11 | 9 | 17 |  | 9 | 18 | 
7 | CN(C)[C@@H]1C(O)=C(C(N)=O)C(=O)[C@@]2(O)C(O)=C3C(=O)c4c(O)cccc4[C@@](C)(O)[C@H]3C[C@@H]12 [TETRACYCLINE] | > 40 | 28 | 18 | 22 | 22 | > 40 | 18 | 28 | 24 | 24 | 18 | 28 | 28 | 18 | > 40 | > 40
